According to patent US9408854B2, “Methods and systems for pharmacogenomic treatment of cardiovascular conditions” (ROSTAQUO S.P.A., priority 2009, dated 2016):

Key:
[1] = system: Na—K Pump and cSrc; assay: In vitro correction of the effect of mutated adducin or ouabain on Na-K pump and cSrc; format: biochemical; conditions: picomolar concentrations in vitro
[2] = system: Na—K Pump and cSrc; assay: Correction of the effect of mutated adducin or ouabain on Na-K pump and cSrc in animals; format: in vivo; conditions: nanomoles doses in animals
[3] = system: hypertensive patients; assay: Pharmacogenomic study: change of office systolic blood pressure (DSBP5_0) after 5 weeks of rostafuroxin vs placebo, by genotype; format: in vivo, human; conditions: 0.05 to 0.50 mg/day vs 1.5 to 5 mg/day

C[C@]12CC[C@H](O)C[C@H]1CC[C@@H]1[C@@H]2CC[C@]2(C)[C@@](O)(c3ccoc3)CC[C@]12O [rostafuroxin, 17β-(3-furyl)-5β-androstane-3β,14β,17α-triol]
correction of the effect of mutated adducin or ouabain on Na—K Pump and cSrc [1]: able to selectively correct the effect of mutated adducin or ouabain on Na—K Pump and cSrc, without blocking the effect of wild adducin | correction of the effect of mutated adducin or ouabain on Na—K Pump and cSrc [2]: able to selectively correct the effect of mutated adducin or ouabain on Na—K Pump and cSrc, without blocking the effect of wild adducin | drop of night blood pressure, low doses vs high doses [3]: relevantly higher drop of night blood pressure as compared to high doses
